Measurements taken from US20030207924A1, “Compounds that modulate PPAR activity and methods of preparation” (priority 2002, published 2003).

Tests used:
hPPARβ chimeric receptor = biological target: T1, hPPARβ chimeric receptor (Homo sapiens, UniProt Q03181); test: Transient transfection assay in HepG2 cells, Gal4-hPPARβ chimeric receptor, luciferase reporter (Test A); assay type: cell-based
T1 construct: "expression plasmids encoding hPPARα, hPPARβ or mPPARγ chimeric receptors"
T1 sequence (Q03181 171-441 limits assumed): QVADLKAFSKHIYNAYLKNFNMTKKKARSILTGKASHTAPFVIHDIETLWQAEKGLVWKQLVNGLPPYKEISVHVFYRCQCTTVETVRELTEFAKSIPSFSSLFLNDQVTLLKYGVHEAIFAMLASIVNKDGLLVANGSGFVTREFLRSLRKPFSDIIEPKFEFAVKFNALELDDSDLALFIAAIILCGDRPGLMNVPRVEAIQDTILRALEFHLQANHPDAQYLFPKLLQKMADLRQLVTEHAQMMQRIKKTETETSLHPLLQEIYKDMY
Procedure: (§1) 1. Test A. Transient Transfections Assay Using the HepG2 Hepatoma Cell Line.
(§2) HepG2 cells were transiently transfected with an expression plasmids encoding hPPARα, hPPARβ or mPPARγ chimeric receptors and a reporter containing the yeast upstream activating sequence (UAS) upstream of the viral E1B promoter controlling a luciferase reporter gene. In addition, the plasmid pRSVβ-gal was used to control for transfection efficiency. HepG2 cells were grown in DMEM supplemented with 10% FBS and […] non-essential amino acid. On the first day, cells were split into 100 mm dishes at 2.5×10^6/dish and incubated overnight at 37° C./5% CO2. On the second day the cells were transiently transfected with plasmid DNA encoding a chimeric receptor, the luciferase reporter gene; and β-gal. For each 100 mm dish, 15 μg of lucifease reporter (PG5E1b) DNA, 15 μg of Gal4-PPAR chimeric receptor DNA, and 1.5 μg of β-gal plasmid DNA were mixed with 1.4 ml of opti-MEM in the tube. 28 μl of LipoFectamine-2000 reagent was added to 1.4 ml of opti-MEM in the tube, and incubate for 5 min at RT. The diluted Lipofectamine-2000 reagent was combined with the DNA mixture, and incubate for 20 min at RT. After fresh medium was added to each 100 mm dish of cells, 2.8 ml of Lipofectamine2000-DNA mixture was added dropwise to the 100 mm dish containing 14 ml of medium, and incubate 37° C. overnight. On day three cells were trypsinized off the 100 mm dishes and re-plated on 96 well plates. Cells were plated at 2.5×10^4 cells per well in 150 μl of media and 50 μl of compound diluted by media was added. The test compounds added were in the range from 50 μM to 50 pM. After addition of compounds, the plates were incubated at 37° C. for 24 hours. Subsequently cells were washed with once with 100 μl of PBS, lysed, and processed for measuring luciferase and β-gal activity using Dual-Light luciferase kit from Tropix®, according to the manufacturer's recommendations, on an EG&G Bethold MicroLumat LB96P luminometer. EC50 values were obtained using the GraphPad Prism™ program.

hPPARα chimeric receptor = biological target: T2, hPPARα chimeric receptor (Homo sapiens, UniProt Q07869); test: Transient transfection assay in HepG2 cells, Gal4-hPPARα chimeric receptor, luciferase reporter (Test A); assay type: cell-based; conditions: HepG2 cells, hPPARα chimeric receptor, luciferase reporter, 24 hours; read-out: EC50-α (Hep G2-hAlpha EC50)
T2 construct: "expression plasmids encoding hPPARα, hPPARβ or mPPARγ chimeric receptors"
T2 sequence (Q07869 200-468 limits assumed): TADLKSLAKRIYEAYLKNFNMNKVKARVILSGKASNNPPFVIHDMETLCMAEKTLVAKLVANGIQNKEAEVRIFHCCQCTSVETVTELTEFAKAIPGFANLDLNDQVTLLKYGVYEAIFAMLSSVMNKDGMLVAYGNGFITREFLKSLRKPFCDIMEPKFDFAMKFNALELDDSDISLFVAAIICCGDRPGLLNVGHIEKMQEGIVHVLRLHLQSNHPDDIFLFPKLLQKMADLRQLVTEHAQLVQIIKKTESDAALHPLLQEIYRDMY
Procedure: as §1
as §2, with “program. […] Accordingly, the compounds of the present invention should find considerable therapeutic applications for hypercholesterolemia and hyperlipidemia.” for “program.”

| SMILES | EC50 (hPPARβ chimeric receptor) | EC50 (hPPARα chimeric receptor) |
| --- | --- | --- |
| Cc1nc(-c2ccc(C(F)(F)F)cc2)sc1CSc1ccc(C2(C(=O)O)CC2)cc1 [Example 13, 1-{4-[4-Methyl-2-(4-trifluoromethyl-phenyl)-thiazol-5-ylmethylsulfanyl]-phenyl}-cyclopropanecarboxylic acid] | 47.6 nM | 1100 nM |
| Cc1cc(SCc2sc(-c3ccc(C(F)(F)F)cc3)nc2C)cc(C)c1OCC(=O)O [Example 4, {2,6-Dimethyl-4-[4-methyl-2-(4-trifluoromethyl-phenyl)-thiazol-5-ylmethylsulfanyl]-phenoxy}-acetic acid] | 23.4 nM | 161 nM |
| Cc1nc(-c2ccc(C(F)(F)F)cc2)sc1CSc1ccc(OCCC(=O)O)cc1 [Example 16, 3-{4-[4-Methyl-2-(4-trifluoromethyl-phenyl)-thiazol-5-ylmethylsulfanyl]-phenoxy}-propionic acid] | 1950 nM | 1230 nM |
| Cc1cc(SCc2sc(-c3ccc(C(F)(F)F)cc3)nc2C)c(F)cc1OCC(=O)O [Example 26, 2-[5-fluoro-2-methyl-4-({4-methyl-2-[4-(trifluoromethyl)phenyl](1,3-thiazol-5-yl)}methylthio)phenoxy]acetic acid] | 0.07 nM | 170 nM |
| COc1cc(OCC(=O)O)c(C)cc1SCc1sc(-c2ccc(C(F)(F)F)cc2)nc1C [Example 5, {5-Methoxy-2-methyl-4-[4-methyl-2-(4-trifluoromethyl-phenyl)-thiazol-5-ylmethylsulfanyl]-phenoxy}-acetic acid] | 2.3 nM | 121 nM |
| CCc1cc(OCC(=O)O)c(C)cc1SCc1sc(-c2ccc(C(F)(F)F)cc2)nc1C [Example 2, {5-Ethyl-2-methyl-4-[4-methyl-2-(4-trifluoromethyl-phenyl)-thiazol-5-ylmethylsulfanyl]-phenoxy}-acetic acid] | 361 nM | 1230 nM |
